Assays:
[1] = target: T1, MAO-A enzyme (Homo sapiens, UniProt P21397); assay: MAO activity assay (fluorometric, kynuramine substrate), MAO-A; type: biochemical; details: for inhibition at 1000 µM: 10^−3 M; for inhibition at 1000 µM / inhibition at 100 µM: ± S.D.; for inhibition at 100 µM: 10^−4 M; for inhibition at 10 µM: 10^−5 M; for inhibition at 1 µM: 10^−6 M; for inhibition at 0.1 µM: 10^−7 M; for inhibition at 0.01 µM: 10^−8 M; for inhibition at 0.001 µM: 10^−9 M
T1 construct: purchased Sigma-Aldrich
T1 sequence (P21397 1-527): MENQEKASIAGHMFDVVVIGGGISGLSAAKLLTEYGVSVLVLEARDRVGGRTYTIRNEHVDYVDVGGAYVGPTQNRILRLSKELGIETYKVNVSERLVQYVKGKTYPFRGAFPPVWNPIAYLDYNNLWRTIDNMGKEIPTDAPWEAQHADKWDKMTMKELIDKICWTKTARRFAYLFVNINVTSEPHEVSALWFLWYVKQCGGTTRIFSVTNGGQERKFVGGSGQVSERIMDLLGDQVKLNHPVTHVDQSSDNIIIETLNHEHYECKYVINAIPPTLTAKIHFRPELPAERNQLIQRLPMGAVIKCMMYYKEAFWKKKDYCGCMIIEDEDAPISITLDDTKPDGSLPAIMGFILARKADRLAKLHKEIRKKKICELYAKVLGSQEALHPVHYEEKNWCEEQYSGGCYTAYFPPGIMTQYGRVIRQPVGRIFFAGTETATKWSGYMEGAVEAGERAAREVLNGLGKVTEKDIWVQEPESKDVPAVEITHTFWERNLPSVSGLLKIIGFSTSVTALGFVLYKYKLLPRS
Protocol: The enzyme activity assay was performed in accordance with the procedure reported by Matsumoto et al. with slight modifications. All materials used in the enzymatic assays were purchased from Sigma-Aldrich Chemicals. All pipetting protocols in the assay were performed by the Biotek Precision robotic system (BioTek Instruments, Inc., Winooski, VT, USA). To prevent the effect of light MAO enzymes, the assay was performed in 96-well black plates. […] The enzyme stock solutions were further diluted with an assay buffer to obtain final concentrations of 0.006 mg/mL MAO-A and 0.015 mg/mL MAO-B. Kynuramine was dissolved in sterilized distilled water to obtain a 25 mM stock solution and then diluted with the assay buffer to obtain final concentrations of 40 μM for the MAO-A enzyme and 20 μM for the MAO-B enzyme. […] The addition of the diluted compounds was followed by the addition of either the MAO-A or MAO-B enzymes (50 μL/well). […] Fluorescence was read from top by using BioTek-Synergy H1 multimode microplate reader at the excitation/emission wavelengths of 310 and 380 nm.
(§1) The IC50 values (Table 2) were calculated from the plots of enzyme activity against concentrations, and the regression analyses were computed in GraphPad Prism Version 6 (GraphPad Software, Inc., La Jolla, CA, USA).

[2] = target: T2, human recombinant MAO-B (Homo sapiens, UniProt P27338); assay: MAO activity assay (fluorometric, kynuramine substrate), MAO-B; type: biochemical; details: for inhibition at 1000 µM: 10^−3 M; for inhibition at 1000 µM / inhibition at 100 µM: ± S.D.; for inhibition at 100 µM: 10^−4 M
T2 construct: purchased Sigma-Aldrich
T2 sequence (P27338 1-520): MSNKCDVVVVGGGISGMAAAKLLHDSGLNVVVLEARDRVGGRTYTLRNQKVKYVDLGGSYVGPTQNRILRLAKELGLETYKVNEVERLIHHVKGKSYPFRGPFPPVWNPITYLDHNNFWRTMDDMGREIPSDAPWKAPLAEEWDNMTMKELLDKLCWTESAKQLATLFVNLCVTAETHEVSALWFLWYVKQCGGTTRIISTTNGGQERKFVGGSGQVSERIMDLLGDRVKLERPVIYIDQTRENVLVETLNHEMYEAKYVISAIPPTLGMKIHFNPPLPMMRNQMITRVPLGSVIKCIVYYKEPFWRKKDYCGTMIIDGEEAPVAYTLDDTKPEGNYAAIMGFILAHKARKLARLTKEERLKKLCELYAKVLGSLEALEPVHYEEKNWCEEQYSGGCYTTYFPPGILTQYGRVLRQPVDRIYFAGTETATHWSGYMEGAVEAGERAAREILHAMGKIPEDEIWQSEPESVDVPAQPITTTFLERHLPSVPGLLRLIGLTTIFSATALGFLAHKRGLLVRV
Protocol: The enzyme activity assay was performed in accordance with the procedure reported by Matsumoto et al. with slight modifications. All materials used in the enzymatic assays were purchased from Sigma-Aldrich Chemicals. All pipetting protocols in the assay were performed by the Biotek Precision robotic system (BioTek Instruments, Inc., Winooski, VT, USA). To prevent the effect of light MAO enzymes, the assay was performed in 96-well black plates. Phosphate buffer (0.1 M, pH = 7.4) was used for the preparation of 5 mg/mL stock solutions of the human recombinant MAO-A and MAO-B enzymes. The enzyme stock solutions were further diluted with an assay buffer to obtain final concentrations of 0.006 mg/mL MAO-A and 0.015 mg/mL MAO-B. Kynuramine was dissolved in sterilized distilled water to obtain a 25 mM stock solution and then diluted with the assay buffer to obtain final concentrations of 40 μM for the MAO-A enzyme and 20 μM for the MAO-B enzyme. […] The addition of the diluted compounds was followed by the addition of either the MAO-A or MAO-B enzymes (50 μL/well). […] Fluorescence was read from top by using BioTek-Synergy H1 multimode microplate reader at the excitation/emission wavelengths of 310 and 380 nm.
as §1

[3] = Cytotoxicity test (MTT assay); details: mouse, NIH/3T3 mouse embryonic fibroblast cells (ATCC CRL-1658)
Protocol: The MTT assay was performed as previously described [21, 22, 23, 24, 25, 26].

[4] = target: T1, MAO-A enzyme; assay: Enzyme kinetic studies (Lineweaver-Burk plots) on MAO-A; type: biochemical
Protocol: The same materials were used for the MAO-inhibition assay. Compound 2j was prepared at the IC50 concentration calculated in the enzyme assay and then added to the wells (100 μL/well). The stock solution (25 mM) of kynuramine in 0.1 M phosphate buffer was diluted to final concentrations of 40, 20, 10, 5, 2.5 and 1.25 μM and then added to the wells (50 μL/well) that contained the test compound. The MAO-A enzyme was added to the plate (50 μL/well), incubated for 20 min at 37 °C, and the plate was read at excitation/emission wavelengths of 310 and 340 nm. The control measurement without the inhibitor was determined simultaneously. The results were analyzed by using Lineweaver-Burk plots in Microsoft Office Excel 2013 (Microsoft Inc., Redmond, WA, USA).
1/V: 1/rate of reaction [1/(nmoles/min/mg protein)], 1/S: 1/substrate concentration (1/µM).

Compound	inhibition at 1000 µM [1] [%]	inhibition at 100 µM [1] [%]	inhibition at 1000 µM [2] [%]	inhibition at 100 µM [2] [%]	melting point [°C]	IC50 [1] [µM]	inhibition at 10 µM [1] [%]	inhibition at 1 µM [1] [%]	inhibition at 0.1 µM [1] [%]	inhibition at 0.01 µM [1] [%]	inhibition at 0.001 µM [1] [%]	IC50 [3] [µM]	IC50 [2] [µM]	inhibition at 10 µM ([2]; 10^−5 M) [%]	inhibition at 1 µM ([2]; 10^−6 M) [%]	inhibition at 0.1 µM ([2]; 10^−7 M) [%]	inhibition at 0.01 µM ([2]; 10^−8 M) [%]	inhibition at 0.001 µM ([2]; 10^−9 M) [%]	Vmax ([4]; MAO-A, kynuramine substrate, nonlinear regression) [nmol/min/mg protein]	Nature of MAO-A inhibition (Lineweaver–Burk plots) ([4]; compound at IC50 concentration, kynuramine 40-1.25 μM)
CCOc1ccc([N+](=O)[O-])c(NN=Cc2ccccc2)n1 [Compound 2a, 2-(2-Benzylidenehydrazinyl)-6-ethoxy-3-nitropyridine]	25.6 ± 0.88	17.9 ± 0.68	0.76 ± 0.03	0.58 ± 0.01	168	–	–	–	–	–	–	–	–	–	–	–	–	–	–	–
CCOc1ccc([N+](=O)[O-])c(NN=Cc2ccc(Cl)cc2)n1 [Compound 2b, 2-[2-(4-Chlorobenzylidene)hydrazinyl]-6-ethoxy-3-nitropyridine]	49 ± 1.22	0.46 ± 0.01	0.43 ± 0.02	0.11 ± 0.004	211	–	–	–	–	–	–	–	–	–	–	–	–	–	–	–
CCOc1ccc([N+](=O)[O-])c(NN=Cc2ccc(F)cc2)n1 [Compound 2c, 6-Ethoxy-2-[2(4-fluorobenzylidene)hydrazinyl]-3-nitropyridine]	52 ± 1.02	7.09 ± 0.18	60.2 ± 1.18	0.69 ± 0.03	191	–	–	–	–	–	–	–	–	–	–	–	–	–	–	–
CCOc1ccc([N+](=O)[O-])c(NN=Cc2ccc(C)cc2)n1 [Compound 2d, 6-Ethoxy-2-[2-(4-methylbenzylidene)hydrazinyl]-3-nitropyridine]	20.1 ± 0.41	11.4 ± 0.28	0.52 ± 0.02	0.18 ± 0.006	171	–	–	–	–	–	–	–	–	–	–	–	–	–	–	–
CCOc1ccc([N+](=O)[O-])c(NN=Cc2ccc(OC)cc2)n1 [Compound 2e, 6-Ethoxy-2-[2-(4-methoxybenzylidene)hydrazinyl]-3-nitropyridine]	55.6 ± 1.05	14 ± 0.41	33.1 ± 1.14	0.22 ± 0.008	175	–	–	–	–	–	–	–	–	–	–	–	–	–	–	–
CCOc1ccc([N+](=O)[O-])c(NN=Cc2ccc([N+](=O)[O-])cc2)n1 [Compound 2f, 6-Ethoxy-3-nitro-2-[2-(4-nitrobenzylidene)hydrazinyl]pyridine]	65 ± 1.23	16 ± 0.56	7.39 ± 0.31	0.55 ± 0.02	281	–	–	–	–	–	–	–	–	–	–	–	–	–	–	–
CCOc1ccc([N+](=O)[O-])c(NN=Cc2ccc(C#N)cc2)n1 [Compound 2g, 6-Ethoxy-2-[2-(4-cyanobenzylidene)hydrazinyl]-3-nitropyridine]	25.9 ± 0.87	14.4 ± 0.54	0.67 ± 0.03	0.27 ± 0.01	267	–	–	–	–	–	–	–	–	–	–	–	–	–	–	–
CCOc1ccc([N+](=O)[O-])c(NN=Cc2ccc(N(C)C)cc2)n1 [Compound 2h, 6-Ethoxy-2-[2-(4-dimethylaminobenzylidene)hydrazinyl]-3-nitropyridine]	80.8 ± 1.31	16.9 ± 0.49	86.3 ± 1.25	3.52 ± 0.15	192	–	–	–	–	–	–	–	–	–	–	–	–	–	–	–
CCOc1ccc([N+](=O)[O-])c(NN=Cc2ccc(C(F)(F)F)cc2)n1 [Compound 2i, 6-Ethoxy-2-[2-(4-trifluoromethylbenzylidene)hydrazinyl]-3-nitropyridine]	55.7 ± 1.26	51.7 ± 1.18	38.3 ± 1.19	29.1 ± 0.99	165	13.1	31.2 ± 1.2	21.1 ± 0.84	15.4 ± 0.62	12.7 ± 0.43	11.6 ± 0.38	> 1000	–	–	–	–	–	–	–	–
CCOc1ccc([N+](=O)[O-])c(NN=Cc2ccc(O)cc2)n1 [Compound 2j, 4-[(2-(6-Ethoxy-3-nitropyridin-2-yl)hydrazono)methyl]phenol]	75.7 ± 1.85	69.8 ± 1.43	63.8 ± 1.28	52.7 ± 1.29	158	6.25	56.1 ± 1.27	43.2 ± 1.06	38.8 ± 1.07	32.7 ± 0.82	26.7 ± 0.96	> 1000	9.3	40.2 ± 1.12	31.6 ± 1.08	25 ± 0.95	21.9 ± 0.82	12.5 ± 0.51	1.903	mixed type inhibitor
CCOc1ccc([N+](=O)[O-])c(NN=Cc2cccn2C)n1 [Compound 2k, 6-Ethoxy-2-[2-((1-methyl-1H-pyrrol-2-yl)methylene)hydrazinyl]-3-nitropyridine]	76.6 ± 1.38	66.1 ± 1.47	40.9 ± 1.02	39.7 ± 1.15	163	6.12	54.7 ± 1.2	36.6 ± 1.08	33.2 ± 0.92	25.2 ± 0.88	23 ± 0.89	> 1000	–	–	–	–	–	–	–	–
CCOc1ccc([N+](=O)[O-])c(NN=Cc2ccco2)n1 [Compound 2l, 6-Ethoxy-2-[2-((furan-2-yl)methylene)hydrazinyl]-3-nitropyridine]	67.8 ± 1.44	64.4 ± 1.3	51 ± 1.08	43 ± 1.06	155	10.6	43 ± 1.02	31 ± 0.98	27.2 ± 0.89	19.8 ± 0.41	17.88 ± 0.17	> 1000	–	–	–	–	–	–	–	–
CCOc1ccc([N+](=O)[O-])c(NN=Cc2cccs2)n1 [Compound 2m, 6-Ethoxy-3-nitro-2-[2-((thiophen-2-yl)methylene)hydrazinyl]pyridine]	41.4 ± 1.13	36 ± 1.15	34.4 ± 0.88	21.2 ± 0.8	152	–	–	–	–	–	–	–	–	–	–	–	–	–	–	–
O=C(NCCN1CCOCC1)c1ccc(Cl)cc1 [Moclobemide, moclobemide, reference compound]	–	–	–	–	–	–	60.5 ± 2.55	36.1 ± 1.98	22.1 ± 1.33	18.2 ± 0.81	14.1 ± 0.72	–	–	–	–	–	–	–	–	–

— article PMC6017090, “Design, Synthesis and Biological Evaluation of Novel N-Pyridyl-Hydrazone Derivatives as Potential Monoamine Oxidase (MAO) Inhibitors” (Molecules : A Journal of Synthetic Chemistry and Natural …, 2018)
